One test has as its target T1, PDK1 kinase (Homo sapiens, UniProt O15530).
T1 sequence (O15530 1-556): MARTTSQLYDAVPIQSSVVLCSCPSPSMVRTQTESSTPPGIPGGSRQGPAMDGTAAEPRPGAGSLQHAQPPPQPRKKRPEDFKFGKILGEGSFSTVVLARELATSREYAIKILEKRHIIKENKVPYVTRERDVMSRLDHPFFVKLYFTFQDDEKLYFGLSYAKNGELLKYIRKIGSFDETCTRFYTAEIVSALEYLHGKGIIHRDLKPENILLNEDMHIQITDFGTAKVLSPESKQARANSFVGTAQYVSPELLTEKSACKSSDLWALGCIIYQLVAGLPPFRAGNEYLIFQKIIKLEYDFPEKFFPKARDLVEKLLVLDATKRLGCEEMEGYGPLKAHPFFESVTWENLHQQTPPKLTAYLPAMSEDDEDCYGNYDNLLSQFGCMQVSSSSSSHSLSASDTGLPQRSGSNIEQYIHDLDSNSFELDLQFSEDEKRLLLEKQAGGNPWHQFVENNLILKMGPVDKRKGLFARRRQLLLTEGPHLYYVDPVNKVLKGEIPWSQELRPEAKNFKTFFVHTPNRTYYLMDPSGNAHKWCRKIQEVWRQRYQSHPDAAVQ
Nature of the test: PDK1 Kinase Alpha Screen Assay. The test is classed as biochemical. The settings on record: read-out: PDK1 IC50. The method in brief: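 Compound in DMSO added to PDK1-4 peptide; PDK1/ATP mix starts reaction (final 50 nM peptide, 10 uM ATP). Runs 3-18 hours, stopped with 90 mM EDTA buffer. Antibody/bead mix added, developed overnight at room temperature, then AlphaScreen signal read.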

A further test has as its system A2780 cells. Nature of the test: Cell Proliferation Assay (Cell Titer Glo), A2780. The class given is cell-based. The conditions noted are these: Homo sapiens, 72 h; A2780 cells, 3 days incubation; read-out: CPEC50 A2780. The method in brief: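 Cells seeded at 1000/well, allowed to adhere 3-5 h, then exposed to DMSO-dissolved compounds for 3 days at 37° C., 5% CO2. Medium replaced before Cell Titer Glo addition; luminescence read after 10 min.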

Another test concerns PC-3 cells. Nature of the test: Cell Proliferation Assay (Cell Titer Glo), PC-3 cell line. The test is classed as cell-based. The conditions noted are these: Homo sapiens, PC-3, 72 h, PC-3 cells, 3 days incubation; read-out: CP EC50 PC3. The method, boiled down:
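PC-3 cells, 1000 cells/well, left to adhere 3-5 h, then exposed for 3 days at 37° C to compounds as 1:3 serial dilutions from 500× DMSO stocks diluted in growth medium. Medium then replaced with fresh medium and viability read by Cell Titer Glo luminescence.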

The subject of test [1] is pAkt308 (phosphorylation of Akt at T308) in PC-3 cells. Nature of the test: pAkt T308 ECL Assay in PC-3 cells. The test is classed as cell-based. The settings on record: Homo sapiens, 6 h, six hours with compound, read-out: PAKT308 PC3 IC50. As for the experimental part:
VI. The pAkt^T308 ECL Assay Protocol
On Day 1, PC-3 cells were seeded at 15,000 cells/well in 100 μL/well ([…]) growth media into black-walled, clear bottom, poly-L-lysine coated plates. The cells were incubated overnight in a 37° C., 5% CO2 incubator.
On Day 2, a MSD ECL plate was blocked for two hours with 150 μL per well of 3% MSD blocker A.
Test compounds were diluted to 500× in DMSO and then were subjected to further serial dilution using a BioMek 2000 instrument. DMSO diluted compounds were then diluted into growth media and then added to the cell plates.
The cell plates incubated with compounds for six hours in a 37° C., 5% CO2 incubator after which the growth medium was removed and 55 μl of MSD lysis buffer was added to cell plates on ice. The plates were lysed on ice for five minutes followed by 15 minutes of vigorous shaking on a plate shaker at 4° C. The blocked MSD assay plates were washed twice with 1×MSD wash buffer followed by the addition of cell lysate as follows: 30 μl of cell lysate was added to the pAkt308 plates and 13 μl of lysate+12 μl lysis buffer was added to the tAkt plates. The plates were then sealed and shaken at 4° C. overnight.
On Day 3, the MSD plates were washed four times with 1×MSD wash buffer then, 25 μl/well of MSD SULFO-TAG antibodies diluted to 10 nM final concentration in 1% blocker. A buffer was added to the antibody diluent which was added to assay plates. The plates were then sealed and incubated at RT for 1.5 hour. The plates were then washed twice with 1×MSD wash buffer followed by the addition of 150 μl/well of 1.5×MSD read buffer. The plates were read immediately after the addition of read buffer using a Trilux instrument. […]

Where only a bound is given, the exact number is not on record here.

In the case of `NS(=O)(=O)c1ccc(Nc2ncc3cc(Br)cc(OC4CCNCC4)c3n2)cc1` [Compound 1, 4-[6-Bromo-8-(piperidin-4-yloxy)-quinazolin-2-ylamino]-benzenesulfonamide], the IC50 on PDK1 kinase is less than 5 µM; in test [1] it was 5 to 10 µM. Moreover, the EC50 with A2780 cells and with PC-3 cells was less than 5 µM each time.

Regarding `NS(=O)(=O)c1ccc(Nc2ncc3cc(Br)cc(OC4CN5CCC4CC5)c3n2)cc1` (stereo not shown) [Compound 2, 4-[8-(1-Aza-bicyclo[2.2.2]oct-3-yloxy)-6-bromo-quinazolin-2-yl-amino]-benzenesulfonamide], the IC50 (at PDK1 kinase; in test [1]) was less than 5 µM in each case. In addition, the EC50 in the test with A2780 cells and in the test with PC-3 cells was less than 5 µM throughout.

With `O=S(=O)(c1ccc(Nc2ncc3cccc(OC4CCNCC4)c3n2)cc1)N1CCOCC1` [Compound 3, [4-(Morpholine-4-sulfonyl)-phenyl]-[8-(piperidin-4-yloxy)-quinazolin-2-yl]-amine], the 50% inhibitory concentration (IC50) (on PDK1 kinase; in test [1]) was less than 5 µM throughout. Also, the EC50 with A2780 cells and in the test with PC-3 cells was less than 5 µM throughout.

`CC(C)N1CCC(Oc2cccc3cnc(Nc4ccc(S(=O)(=O)N5CCOCC5)cc4)nc23)CC1` [Compound 4, [8-(1-Isopropyl-piperidin-4-yloxy)-quinazolin-2-yl]-[4-(morpholine-4-sulfonyl)-phenyl]-amine]: the concentration for half-maximal inhibition (IC50) (on PDK1 kinase; in test [1]) was less than 5 µM in each case. Moreover, the EC50 in the test with A2780 cells and in the test with PC-3 cells was less than 5 µM each time.

On to `CC(C)NS(=O)(=O)c1ccc(Nc2ncc3cccc(OC4CCNCC4)c3n2)cc1` [Compound 11, N-Isopropyl-4-[8-(piperidin-4-yloxy)-quinazolin-2-ylamino]-benzenesulfonamide], for which the IC50 (at PDK1 kinase; in test [1]) was less than 5 µM each time. For the same compound, the EC50 in the test with A2780 cells and in the test with PC-3 cells was less than 5 µM each time.

Take `COCCNS(=O)(=O)c1ccc(Nc2ncc3cccc(OC4CCNCC4)c3n2)cc1` [Compound 12, N-(2-Methoxy-ethyl)-4-[8-(piperidin-4-yloxy)-quinazolin-2-ylamino]-benzenesulfonamide]: the IC50 (at PDK1 kinase; in test [1]) was less than 5 µM in each case. In addition, the EC50 in the test on A2780 cells and in the test on PC-3 cells was less than 5 µM each time.

Regarding `O=S(=O)(NC1CC1)c1ccc(Nc2ncc3cccc(OC4CCNCC4)c3n2)cc1` [Compound 13, N-Cyclopropyl-4-[8-(piperidin-4-yloxy)-quinazolin-2-ylamino]-benzenesulfonamide], the IC50 (on PDK1 kinase; in test [1]) was less than 5 µM throughout. Besides, the EC50 with A2780 cells and in the test on PC-3 cells was less than 5 µM throughout.

Take `O=S(=O)(NCCN1CCCC1)c1ccc(Nc2ncc3cccc(OC4CCNCC4)c3n2)cc1` [Compound 14, 4-[8-(Piperidin-4-yl-oxy)-quinazolin-2-ylamino]-N-(2-pyrrolidin-1-yl-ethyl)-benzenesulfonamide]: the IC50 at PDK1 kinase was less than 5 µM; in test [1] it was 5 to 10 µM. The EC50 in the test on A2780 cells and in the test on PC-3 cells was less than 5 µM throughout.

`NS(=O)(=O)c1ccc(Nc2ncc3ccc(-c4ncco4)c(OC4CCNCC4)c3n2)cc1` [Compound 26, 4-[7-Oxazol-2-yl-8-(piperidin-4-yloxy)-quinazolin-2-ylamino]-benzenesulfonamide]: the concentration for half-maximal inhibition (IC50) on PDK1 kinase was less than 5 µM; in test [1], 5 to 10 µM. For the same compound, the EC50 with A2780 cells is less than 5 µM.

In the case of `NS(=O)(=O)c1ccc(Nc2ncc3ccc(-c4nccs4)c(OC4CCNCC4)c3n2)cc1` [Compound 27, 4-[8-(Piperidin-4-yloxy)-7-thiazol-2-yl-quinazolin-2-ylamino]-benzenesulfonamide], the IC50 (at PDK1 kinase; in test [1]) was less than 5 µM in each case. The EC50 in the test with A2780 cells is less than 5 µM.

`NS(=O)(=O)c1ccc(Nc2ncc3ccc(-c4ccccn4)c(OC4CCNCC4)c3n2)cc1` [Compound 28, 4-[8-(Piperidin-4-yloxy)-7-pyridin-2-yl-quinazolin-2-ylamino]-benzenesulfonamide]: the IC50 is less than 5 µM on PDK1 kinase and 5 to 10 µM in test [1]. Besides, the EC50 in the test on A2780 cells was less than 5 µM.

As for `NS(=O)(=O)c1ccc(Nc2ncc3cccc(OC4CCNCC4)c3n2)cc1` [Compound 31, 4-[8-(Piperidin-4-yloxy)-quinazolin-2-ylamino]-benzenesulfonamide], the 50% inhibitory concentration (IC50) (at PDK1 kinase; in test [1]) was less than 5 µM in each case. For the same compound, the EC50 in the test on A2780 cells and in the test on PC-3 cells was less than 5 µM each time.

As for `CN1CCC(Oc2cccc3cnc(Nc4ccc(S(N)(=O)=O)cc4)nc23)CC1` [Compound 35, 4-[8-(1-Methyl-piperidin-4-yloxy)-quinazolin-2-ylamino]-benzenesulfonamide], the concentration for half-maximal inhibition (IC50) (on PDK1 kinase; in test [1]) was less than 5 µM throughout. Further, the EC50 with A2780 cells is less than 5 µM.

As for `CC(C)N1CCC(Oc2cccc3cnc(Nc4ccc(S(N)(=O)=O)cc4)nc23)CC1` [Compound 36, 4-[8-(1-Isopropyl-piperidin-4-yloxy)-quinazolin-2-ylamino]-benzenesulfonamide], the half-maximal inhibitory concentration (IC50) (at PDK1 kinase; in test [1]) was less than 5 µM in each case. The EC50 with A2780 cells and in the test with PC-3 cells was less than 5 µM each time.

With `NS(=O)(=O)c1ccc(Nc2ncc3cccc(O[C@@H]4CCNC4)c3n2)cc1` [Compound 37, 4-[8-((R)-Pyrrolidin-3-yloxy)-quinazolin-2-ylamino]-benzenesulfonamide], the IC50 was less than 5 µM on PDK1 kinase and 5 to 10 µM in test [1]. For the same compound, the EC50 in the test on A2780 cells was less than 5 µM.

Take `CNC(=O)c1ccc(Nc2ncc3cccc(OC4CCN(C(C)C)CC4)c3n2)cc1` [Compound 43, 4-[8-(1-Isopropyl-piperidin-4-yloxy)-quinazolin-2-ylamino]-N-methyl-benzamide]: the concentration for half-maximal inhibition (IC50) (on PDK1 kinase; in test [1]) was less than 5 µM in each case. Moreover, in the test on A2780 cells, the EC50 is less than 5 µM.

`CCN1CCC(Oc2cccc3cnc(Nc4ccc(S(N)(=O)=O)cc4)nc23)CC1` [Compound 46, 4-[8-(1-Ethyl-piperidin-4-yloxy)-quinazolin-2-ylamino]-benzenesulfonamide]: the IC50 is less than 5 µM on PDK1 kinase and 5 to 10 µM in test [1]. In the test with A2780 cells, the EC50 was less than 5 µM.

As to `CC(C)Cn1cc(-c2ccc3cnc(Nc4ccc(S(N)(=O)=O)cc4)nc3c2OC2CCNCC2)cn1` [Compound 65], the IC50 at PDK1 kinase is less than 5 µM; in test [1], 5 to 10 µM. In the test with A2780 cells, the EC50 was less than 5 µM.

As for `NS(=O)(=O)c1ccc(Nc2ncc3ccc(-c4cnccn4)c(OC4CCNCC4)c3n2)cc1` [Compound 66, 4-[8-(Piperidin-4-yloxy)-7-pyrazin-2-yl-quinazolin-2-ylamino]-benzenesulfonamide], the values for the half-maximal inhibitory concentration (IC50) (at PDK1 kinase; in test [1]) were less than 5 µM and 5 to 10 µM, respectively. In the test on A2780 cells, the EC50 was less than 5 µM.

Turning to `NS(=O)(=O)c1ccc(Nc2ncc3ccc(-c4cccnc4)cc3n2)cc1` [Compound 133, 4-(7-Pyridin-3-yl-quinazolin-2-ylamino)-benzenesulfonamide], the 50% inhibitory concentration (IC50) (at PDK1 kinase; in test [1]) was less than 5 µM throughout. Further, the EC50 in the test on A2780 cells was less than 5 µM.

With `COc1cncc(-c2ccc3cnc(Nc4ccc(S(N)(=O)=O)cc4)nc3c2)c1` [Compound 138, 4-[7-(5-Methoxy-pyridin-3-yl)-quinazolin-2-ylamino]-benzenesulfonamide], the half-inhibitory concentration (IC50) is less than 5 µM on PDK1 kinase and 5 to 10 µM in test [1]. Further, in the test on A2780 cells, the EC50 is less than 5 µM.

Values taken from US7932262B2 (Novartis AG, priority 2006, dated 2011).
